Test results from patent US8114872B2, “Triazolyl aminopyrimidine compounds” (Eli Lilly and Company, priority 2007, dated 2012).
Read-outs that look alike come from different tables or passages of the source.

How the values were obtained:
HCT116 cells = assay: Antiproliferative Assay (Alamar Blue); assay type: cell-based; details: Homo sapiens, HCT-116, e.g. 72 hours exposure, n=2, MSR 3.1, racemate, read-out: average IC50 (cell proliferation)
Protocol: The effects of compounds on cell proliferation can be determined using cells and cell proliferation methods well-known in the art (Robert C. Squatrito et al., Gynecological Oncology, 58, 101-105, (1995)). For example, HCT116 cells, which may be obtained from the American Type Culture Collection, may be seeded at ˜2000 cells/well in 96-well plates and allowed to attach overnight in a humidified CO2 incubator at 37° C. Following the 20-24 hour incubation, half-log serially diluted compounds are added and the plates are returned to the incubator. After an appropriate length of exposure (e.g., 72 hours), cell proliferation is estimated using well-known methods. In one method, 10 μL of a tetrazolium salt, such as Alamar Blue™ is added to the cell plates. After an appropriate exposure to the dye, fluorescence (530 nm excitation, 580 nm emission) is determined.

[1] = molecular target: T1, Plk1-Flag-His6 tag fusion enzyme (Human Plk1) (Homo sapiens, UniProt P53350); assay: Plk1 Inhibition Assay (33P-ATP filter plate kinase reaction, GST-Cdc25C(1-206) substrate); assay type: biochemical; details: 5.0 μM ATP, RT 60 min; MSR 3.6; racemate; read-out: Plk1 IC50 (absolute IC50)
T1 construct: made in house; host or cells: Sf9 insect cells (baculovirus, pFastBac vector); substrate in E. coli BL21 (pGEX-2T)
From the text: Human Plk1 cDNA may be directly linked at one of its termini with a polynucleotide sequence expressing a His6 tag, such as the C-terminal FLAG-His6 tag, and inserted into an appropriate expression vector, such as a pFastBac™ vector (Invitrogen) and transfected into an appropriate system, such as baculovirus similar to what has been reported by Yue-Wei Qian, et al., Science, 282, 1701 (1998) for xPlk1. If a viral expression system is used, then the virus (e.g., baculovirus bearing a Plk1-Flag-His6 tag polynucleotide construct) is infected into a culture of a suitable host cell, such as Sf9 cells. […]
Plk1 kinase reactions contain Plk1-Flag-His6 tag fusion enzyme (0.2 ng/μL) in a buffer containing 50 mM HEPES, pH 7.3, 1.0 mM dithiothreitol, 5.0 μM ATP, 10 mM MgCl2, 0.01% TRITON® X-100, 0.4 μCi ^33P-ATP, and 0.06 μg/μL GST-Cdc25c (1-206) peptide. […] Wells are dried before addition of 40 μL of MicroScintTM20 (Packard) and then counted on a Wallac MICROBETA® Jet. The percentage inhibition values from the 10-point concentration response data are subsequently analyzed, for example, using ACTIVITY BASE™ software (IDBS), using a 4-parameter logistic equation. Absolute IC50 values are calculated from the resulting curve fit.

HeLa Cells = assay: pHH3(S10), Mitotic Cells, and DNA Content Assays; assay type: cell-based; details: Homo sapiens, 23 hours exposure
Protocol: HeLa Cells are plated at 200 cells/well in 96 well […] Dickinson BIOCOAT™ plates, and are incubated in MEM (Minimum Essential Medium) with 10% FBS (Fetal Bovine Serum) in 37° C., 5% CO2 for 24 hours. Cells are treated by adding compound (in 0.25% DMSO) to the medium, dosing at 10 points across the range […] to 0.0098 μM. After 23 hours exposure to the compounds, cells are fixed, for example with the PREFER™ fixative for 30 min then are permeabilized with 0.1% TRITON® X100 in phosphate buffered saline (PBS) solution for 15 min. Cells are washed 3 times with PBS then digested with 50 μg/mL RNAse. Primary antibody, phosphohistone H3, is added at 1:500 in PBS with 1% bovine serum albumin (BSA) to the cells over night at 4° C. After 3 PBS washes, cells are incubated with Alexa488 labeled secondary antibody for 1 hour at RT. Again they are washed 3 times with PBS, and then 15 μM propidium iodide is added for 30 min to stain nuclei. Fluorescence Plates are scanned with ACUMEN EXPLORER™ [Laser-scanning fluorescence microplate cytometer (comprising of 488 nm argon ion laser excitation and multiple photomultiplier tube detection), manufactured by TTP LABTECH LTD] to measure anti-phosphohistone H3 Serine 10, DNA content and mitotic cells as measured by DNA condensation. Image analysis are based on cellular fluorescent signals for identifying cells in different subpopulations. pHH3(S10) positive cells are identified by mean intensity at 500-530 nm above the threshold. Total intensity at 655-705 nm from propidium iodide/DNA is used to identify individual cells (cells with DNA content from 2N to 4N) and subpopulations in cell cycle (2N cells, 4N cells). Peak intensity at 575-640 nm is used to identify DNA condensation that is used as the marker to identify mitotic cells among 4N cells. Assay outputs are percentage of each identified subpopulations, % pHH3, % 2N, % 4N, % mitotic and total cell number. The EC50 is determined by curve fitting to a four parameter logistic for each output using ACTIVITY BASE™.

[2] = tested on: HCT116, A549 and NCIH460 murine xenografts; details: cited from earlier work
[3] = in man, cited from earlier work

T1 sequence (P53350 whole entry, the tested form may be a part): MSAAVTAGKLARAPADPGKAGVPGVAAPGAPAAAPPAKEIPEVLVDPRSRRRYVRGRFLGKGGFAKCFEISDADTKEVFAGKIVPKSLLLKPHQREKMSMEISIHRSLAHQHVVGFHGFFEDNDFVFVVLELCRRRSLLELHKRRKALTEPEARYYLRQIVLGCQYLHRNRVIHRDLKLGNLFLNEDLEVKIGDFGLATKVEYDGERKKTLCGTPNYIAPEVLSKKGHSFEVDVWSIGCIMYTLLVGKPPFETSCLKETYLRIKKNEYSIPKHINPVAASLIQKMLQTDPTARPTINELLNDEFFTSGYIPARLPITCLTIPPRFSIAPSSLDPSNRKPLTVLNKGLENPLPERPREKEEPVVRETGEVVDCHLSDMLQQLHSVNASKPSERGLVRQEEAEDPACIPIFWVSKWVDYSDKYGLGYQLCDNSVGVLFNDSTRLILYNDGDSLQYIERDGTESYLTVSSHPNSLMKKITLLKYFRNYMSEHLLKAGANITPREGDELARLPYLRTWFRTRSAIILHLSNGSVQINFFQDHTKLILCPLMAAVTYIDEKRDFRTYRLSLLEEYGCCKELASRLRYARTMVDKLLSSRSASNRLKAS

IC50 (HCT116 cells) [nM] | IC50 [1] [nM] | EC50 (HeLa Cells; MSR 2.4, racemate, read-out: DNA content EC50) [nM] | EC50 (HeLa Cells; MSR 2.5, racemate, read-out: mitotic EC50) [nM] | EC50 (HeLa Cells; MSR 2.6, racemate, read-out: pHH3(s10) EC50) [nM] | SMILES | activity in preclinical xenograft models [2] | dose-limiting toxicity ([3]; phase II clinical trials) | clearance (CL) [3] [mL/min]
31 | 12 | 30 | 23 | 25 | CC(N)c1cnc(F)cc1-c1cccc2cc(-c3nc(NCCn4ccnn4)ncc3F)sc12 (racemic) [Example 41, N-(2-(1H-1,2,3-Triazol-1-yl)ethyl)-4-(7-(5-(1-aminoethyl)-2-fluoropyridin-4-yl)benzo[b]thiophen-2-yl)-5-fluoropyrimidin-2-amine] | – | – | –
– | – | – | – | – | CC[C@@H]1C(=O)N(C)c2cnc(Nc3ccc(C(=O)NC4CCN(C)CC4)cc3OC)nc2N1C1CCCC1 [BI-2536] | demonstrated activity | dose limited by myelosupression | > 1000
